Earlier results, collected in paper PMC12382614, “(Oxidopyridyl)Porphyrins of Different Lipophilicity: Photophysical Properties, ROS Production and Phototoxicity on Melanoma Cells Under CoCl2-Induced Hypoxia” (Antioxidants, 2025).

Assays:
[1] = set-up: method as in PMID 3222336; conditions: reference compound; cited from earlier work
[2] = cited from earlier work

C1=Cc2nc1c(-c1ccccc1)c1nc(c(-c3ccccc3)c3ccc([nH]3)c(-c3ccccc3)c3ccc([nH]3)c2-c2ccccc2)C=C1 [TPP, tetraphenylporphyrin, reference compound]
τFL [1]: 10.7 ns
ΦISC ([2]; reference compound (in toluene)): 0.87
εT-T ([2]; reference compound): 66 600 M^−1cm^−1
τT ([2]; reference compound): 90 μs
